Assay results from PubChem BioAssay (NCI).
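Interpolation was linear, between the two tested concentrations surrounding the appropriate level; five concentrations were tested over 48 hours in 96-well plates. Definition used: TGI = concentration required for complete inhibition of growth.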

tested on: SN12C renal; test: NCI anticancer screen, dose series, 48 h

Row | SMILES | TGI [µM]
1 | CCOC(=O)C(=O)/C(=C/n1c(=S)[nH]c2ccc([N+](=O)[O-])cc21)C(=O)OCC | > 100
2 | CC1(CO)COC(C)(C)OC1 | > 100
3 | CC12CP(=O)(c3ccccc3)CC1c1ccccc1C2c1ccccc1 (centres undefined) | 32.2
4 | CN(C)/C=C1\CCc2ccc([N+](=O)[O-])cc2C1=O | 40.4

tested on: NCI-H226 lung; test: NCI anticancer screen, dose series, 48 h

Row | SMILES | TGI [µM]
5 | CCOC(=O)C(=O)/C(=C/n1c(=S)[nH]c2ccc([N+](=O)[O-])cc21)C(=O)OCC | > 100
6 | CCOC(=O)c1csc(NC(=O)CN(C)C)n1 | > 100
7 | CC1(CO)COC(C)(C)OC1 | > 100
8 | CC12CP(=O)(c3ccccc3)CC1c1ccccc1C2c1ccccc1 (centres undefined) | 44.1
9 | CN(C)/C=C1\CCc2ccc([N+](=O)[O-])cc2C1=O | > 100

tested on: T-47D breast; test: NCI anticancer screen, dose series, 48 h

Row | SMILES | TGI [µM]
10 | CCOC(=O)C(=O)/C(=C/n1c(=S)[nH]c2ccc([N+](=O)[O-])cc21)C(=O)OCC | > 100
11 | CCOC(=O)c1csc(NC(=O)CN(C)C)n1 | > 100
12 | CC1(CO)COC(C)(C)OC1 | > 100
13 | CC12CP(=O)(c3ccccc3)CC1c1ccccc1C2c1ccccc1 (centres undefined) | 37.5
14 | CN(C)/C=C1\CCc2ccc([N+](=O)[O-])cc2C1=O | 89.6

tested on: NCI-H23 lung; test: NCI anticancer screen, dose series, 48 h

Row | SMILES | TGI [µM]
15 | CCOC(=O)C(=O)/C(=C/n1c(=S)[nH]c2ccc([N+](=O)[O-])cc21)C(=O)OCC | > 100
16 | CCOC(=O)c1csc(NC(=O)CN(C)C)n1 | > 100
17 | CC1(CO)COC(C)(C)OC1 | > 100
18 | CC12CP(=O)(c3ccccc3)CC1c1ccccc1C2c1ccccc1 (centres undefined) | 41.8
19 | CN(C)/C=C1\CCc2ccc([N+](=O)[O-])cc2C1=O | > 100

tested on: NCI/ADR-RES ovarian; test: NCI anticancer screen, dose series, 48 h

Row | SMILES | TGI [µM]
20 | CCOC(=O)C(=O)/C(=C/n1c(=S)[nH]c2ccc([N+](=O)[O-])cc21)C(=O)OCC | > 100
21 | CCOC(=O)c1csc(NC(=O)CN(C)C)n1 | > 100
22 | CC1(CO)COC(C)(C)OC1 | > 100
23 | CC12CP(=O)(c3ccccc3)CC1c1ccccc1C2c1ccccc1 (centres undefined) | 32.7
24 | CN(C)/C=C1\CCc2ccc([N+](=O)[O-])cc2C1=O | > 100

tested on: EKVX NSCLC; test: NCI anticancer screen, dose series, 48 h

Row | SMILES | TGI [µM]
25 | CCOC(=O)c1csc(NC(=O)CN(C)C)n1 | > 100
26 | CC12CP(=O)(c3ccccc3)CC1c1ccccc1C2c1ccccc1 (centres undefined) | 44.6
27 | CN(C)/C=C1\CCc2ccc([N+](=O)[O-])cc2C1=O | > 100

tested on: SF-268 CNS; test: NCI anticancer screen, dose series, 48 h

Row | SMILES | TGI [µM]
28 | CCOC(=O)C(=O)/C(=C/n1c(=S)[nH]c2ccc([N+](=O)[O-])cc21)C(=O)OCC | > 100
29 | CCOC(=O)c1csc(NC(=O)CN(C)C)n1 | > 100
30 | CC1(CO)COC(C)(C)OC1 | > 100
31 | CC12CP(=O)(c3ccccc3)CC1c1ccccc1C2c1ccccc1 (centres undefined) | 67
32 | CN(C)/C=C1\CCc2ccc([N+](=O)[O-])cc2C1=O | > 100

tested on: IGROV1 ovarian; test: NCI anticancer screen, dose series, 48 h

Row | SMILES | TGI [µM]
33 | CCOC(=O)c1csc(NC(=O)CN(C)C)n1 | > 100
34 | CC12CP(=O)(c3ccccc3)CC1c1ccccc1C2c1ccccc1 (centres undefined) | 46
35 | CN(C)/C=C1\CCc2ccc([N+](=O)[O-])cc2C1=O | > 100

tested on: UACC-257 melanoma; test: NCI anticancer screen, dose series, 48 h

Row | SMILES | TGI [µM]
36 | CCOC(=O)C(=O)/C(=C/n1c(=S)[nH]c2ccc([N+](=O)[O-])cc21)C(=O)OCC | > 100
37 | CCOC(=O)c1csc(NC(=O)CN(C)C)n1 | > 100
38 | CC1(CO)COC(C)(C)OC1 | > 100
39 | CN(C)/C=C1\CCc2ccc([N+](=O)[O-])cc2C1=O | 38.2

tested on: HOP-92 NSCLC; test: NCI anticancer screen, dose series, 48 h

Row | SMILES | TGI [µM]
40 | CCOC(=O)C(=O)/C(=C/n1c(=S)[nH]c2ccc([N+](=O)[O-])cc21)C(=O)OCC | > 100
41 | CCOC(=O)c1csc(NC(=O)CN(C)C)n1 | > 100
42 | CC1(CO)COC(C)(C)OC1 | > 100
43 | CC12CP(=O)(c3ccccc3)CC1c1ccccc1C2c1ccccc1 (centres undefined) | 50

tested on: ACHN renal; test: NCI anticancer screen, dose series, 48 h

Row | SMILES | TGI [µM]
44 | CCOC(=O)C(=O)/C(=C/n1c(=S)[nH]c2ccc([N+](=O)[O-])cc21)C(=O)OCC | > 100
45 | CCOC(=O)c1csc(NC(=O)CN(C)C)n1 | > 100
46 | CC1(CO)COC(C)(C)OC1 | > 100
47 | CC12CP(=O)(c3ccccc3)CC1c1ccccc1C2c1ccccc1 (centres undefined) | 41.1
48 | CN(C)/C=C1\CCc2ccc([N+](=O)[O-])cc2C1=O | > 100

tested on: SNB-19 CNS; test: NCI anticancer screen, dose series, 48 h

Row | SMILES | TGI [µM]
49 | CCOC(=O)C(=O)/C(=C/n1c(=S)[nH]c2ccc([N+](=O)[O-])cc21)C(=O)OCC | > 100
50 | CCOC(=O)c1csc(NC(=O)CN(C)C)n1 | > 100
51 | CC1(CO)COC(C)(C)OC1 | > 100
52 | CC12CP(=O)(c3ccccc3)CC1c1ccccc1C2c1ccccc1 (centres undefined) | > 100
53 | CN(C)/C=C1\CCc2ccc([N+](=O)[O-])cc2C1=O | > 100

tested on: 786-0 renal; test: NCI anticancer screen, dose series, 48 h

Row | SMILES | TGI [µM]
54 | CCOC(=O)C(=O)/C(=C/n1c(=S)[nH]c2ccc([N+](=O)[O-])cc21)C(=O)OCC | > 100
55 | CC12CP(=O)(c3ccccc3)CC1c1ccccc1C2c1ccccc1 (centres undefined) | 32.8
56 | CN(C)/C=C1\CCc2ccc([N+](=O)[O-])cc2C1=O | > 100

tested on: COLO 205 colon; test: NCI anticancer screen, dose series, 48 h

Row | SMILES | TGI [µM]
57 | CCOC(=O)C(=O)/C(=C/n1c(=S)[nH]c2ccc([N+](=O)[O-])cc21)C(=O)OCC | > 100
58 | CCOC(=O)c1csc(NC(=O)CN(C)C)n1 | > 100
59 | CC1(CO)COC(C)(C)OC1 | > 100
60 | CN(C)/C=C1\CCc2ccc([N+](=O)[O-])cc2C1=O | 43.5

tested on: HL-60(TB) leukemia; test: NCI anticancer screen, dose series, 48 h

Row | SMILES | TGI [µM]
61 | CCOC(=O)C(=O)/C(=C/n1c(=S)[nH]c2ccc([N+](=O)[O-])cc21)C(=O)OCC | > 100
62 | CCOC(=O)c1csc(NC(=O)CN(C)C)n1 | > 100
63 | CC12CP(=O)(c3ccccc3)CC1c1ccccc1C2c1ccccc1 (centres undefined) | 28.5
64 | CN(C)/C=C1\CCc2ccc([N+](=O)[O-])cc2C1=O | 66.6
